Source: US20060100431A1, “Biologically active compounds” (Amura Therapeutics Limited, priority 2002, published 2006)

Biological target: Wild-type cruzipain (Trypanosoma cruzi, UniProt P25779)
Test: Trypanosoma cruzi cruzipain peptidase activity assay (Ki)
Assay type: biochemical
Settings: read-out: Ki, inhibitors of cruzain and cruzipains
Protocol: Unless otherwise stated, all general chemicals and biochemicals were purchased from either the Sigma Chemical Company, Poole, Dorset, U.K or from Fisher Scientific UK, Loughborough, Leicestershire, U.K. Absorbance assays were carried out in flat-bottomed 96-well plates (Spectra; Greiner Bio-One Ltd., Stonehouse, Gloucestershire, U.K.) using a SpectraMax PLUS384 plate reader (Molecular Devices, Crawley, U.K.). Fluorescence high throughput assays were carried out in either 384-well microtitre plates (Corning Costar 3705 plates, Fisher Scientific) or 96-well ‘U’ bottomed Microfluor W1 microtitre plates (Thermo Labsystems, Ashford, Middlesex, U.K.). Fluorescence assays were monitored using a SpectraMax Gemini fluorescence plate reader (Molecular Devices). For substrates employing either a 7-amino-4-methylcoumarin (AMC) or a 7-amino-4-trifluoromethylcoumarin (AFC) fluorophore, assays were monitored at an excitation wavelength of 365 nm and an emission wavelength of 450 nm and the fluorescence plate reader calibrated with AMC. For substrates employing a 3-amino-benzoyl (Abz) fluorophore, assays were monitored at an excitation wavelength of 310 nm and an emission wavelength of 445 nm; the fluorescence plate reader calibrated with 3-amino-benzamide (Fluka). Unless otherwise indicated, all the peptidase substrates were purchased from Bachem UK, St Helens, Merseyside, UK. Substrates utilizing fluorescence resonance energy transfer methodology (i.e. FRET-based substrates) were synthesized at Incenta Limited using published methods (Atherton & Sheppard, Solid Phase Peptide Synthesis, IRL Press, Oxford, U.K, 1989) and employed Abz (2-aminobenzoyl) as the fluorescence donor and 3-nitro-tyrosine [Tyr(NO2)] as the fluorescence quencher (Meldal, M. and Breddam, K., Anal. Biochem, 195, 141-147, 1991). Hydroxyethylpiperazine ethanesulfonate (HEPES), tris-hydroxylmethyl aminomethane (tris) base, bis-tris-propane and all the biological detergents (e.g. CHAPS, zwittergents, etc.) were purchased from CN Biosciences UK, Beeston, Nottinghamshire, U.K. Glycerol was purchased from Amersham Pharmacia Biotech, Little Chalfont, Buckinghamshire, U.K. Stock solutions of substrate or inhibitor were made up to 10 mM in 100% dimethylsulfoxide (DMSO) (Rathburns, Glasgow, U.K.) and diluted as appropriately required. In all cases the DMSO concentration in the assays was maintained at less than 1% (vol./vol.).
Assay protocols were based on literature precedent (Table 4; Barrett, A. J., Rawlings, N. D. and Woessner, J. F., 1998, Handbook of Proteolytic Enzymes, Academic Press, London and references therein) and modified as required to suit local assay protocols. Enzyme was added as required to initiate the reaction and the activity, as judged by the change in fluorescence upon conversion of substrate to product, was monitored over time. All assays were carried out at 25±1° C.
Wild-type cruzipain, derived from Trypanosoma cruzi Dm28 epimastigotes, was obtained from Dr. Julio Scharfstein (Instituto de Biofisica Carlos Chagas Filho, Universidade Federal do Rio de Janeiro, Rio de Janeiro, Brazil). Activity assays were carried out in 100 mM sodium phosphate, pH 6.75 containing 1 mM EDTA and 10 mM L-cysteine using 2.5 nM enzyme. […] The rate of conversion of substrate to product was derived from the slope of the increase in fluorescence monitored continuously over time.
The apparent inhibition constant (Ki) for each compound was determined on the basis that inhibition was reversible and occurred by a pure-competitive mechanism. The Ki values were calculated, from the dependence of enzyme activity as a function of inhibitor concentration, by direct regression analysis (Prism v 3.02) using Equation 2 (Cornish-Bowden, A., 1995.). [formula]

Sequence of Wild-type cruzipain (P25779 whole entry): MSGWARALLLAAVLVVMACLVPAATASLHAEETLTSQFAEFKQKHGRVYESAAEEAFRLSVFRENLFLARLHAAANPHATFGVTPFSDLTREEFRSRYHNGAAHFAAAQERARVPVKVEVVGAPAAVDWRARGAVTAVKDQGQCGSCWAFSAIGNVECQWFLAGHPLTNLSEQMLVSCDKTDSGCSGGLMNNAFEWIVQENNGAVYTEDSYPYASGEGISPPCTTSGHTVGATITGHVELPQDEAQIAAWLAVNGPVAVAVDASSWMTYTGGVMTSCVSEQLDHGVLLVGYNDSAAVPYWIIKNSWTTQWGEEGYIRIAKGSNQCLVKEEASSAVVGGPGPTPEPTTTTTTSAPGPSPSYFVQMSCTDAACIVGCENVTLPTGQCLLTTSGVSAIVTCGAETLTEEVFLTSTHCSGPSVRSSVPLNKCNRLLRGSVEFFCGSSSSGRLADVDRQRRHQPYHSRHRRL

Ki [µM]	Compound
< 5	CC(C)C[C@H](NC(=O)c1ccc(N(C)C)cc1)C(=O)N1CC[C@@H]2[C@H]1C(=O)CN2C(=O)[C@@H]1CCCN1 [Example 156, (3aR,6aS)-4-Dimethylamino-N-{(1S)-3-methyl-1-[6-oxo-4-((2S)-pyrrolidine-2-carbonyl)-hexahydro-pyrrolo[3,2-b]pyrrole-1-carbonyl]-butyl}-benzamide]
< 5	CC(C)C[C@H](NC(=O)c1ccc(N(C)C)cc1)C(=O)N1CC[C@@H]2[C@H]1C(=O)CN2C(=O)CN1CCNCC1 [Example 241, (3aR,6aS)-4-Dimethylamino-N-{(1S)-3-methyl-1-[6-oxo-4-(2-piperazin-1-yl-acetyl)-hexahydro-pyrrolo[3,2-b]pyrrole-1-carbonyl]-butyl}-benzamide]
< 5	CC(C)C[C@H](NC(=O)c1ccc(N(C)C)cc1)C(=O)N1CC[C@@H]2[C@H]1C(=O)CN2C(=O)[C@@H]1CCCCN1 [Example 217, (3aR,6aS)-4-Dimethylamino-N-{(1S)-3-methyl-1-[6-oxo-4-((2S)-piperidine-2-carbonyl)-hexahydro-pyrrolo[3,2-b]pyrrole-1-carbonyl]-butyl}-benzamide]
< 5	CC(C)C[C@H](NC(=O)c1ccc(N(C)C)cc1)C(=O)N1CC[C@@H]2[C@H]1C(=O)CN2C(=O)C1CCCNC1 (stereo partly drawn) [Example 140, (3aR,6aS)-4-Dimethylamino-N-{(1S)-3-methyl-1-[6-oxo-4-(piperidine-3-carbonyl)-hexahydro-pyrrolo[3,2-b]pyrrole-1-carbonyl]-butyl}-benzamide]
< 5	Cc1ccc(C(=O)N2CC(=O)[C@@H]3[C@H]2CCN3C(=O)[C@H](CC(C)C)NC(=O)c2ccc(N(C)C)cc2)cc1 [Example 55, (3aR,6aS)-4-Dimethylamino-N-{(1S)-3-methyl-1-[4-(4-methyl-benzoyl)-6-oxo-hexahydro-pyrrolo[3,2-b]pyrrole-1-carbonyl]-butyl}-benzamide]
< 5	CC(C)C[C@H](NC(=O)c1ccc(N(C)C)cc1)C(=O)N1CC[C@@H]2[C@H]1C(=O)CN2C(=O)C1CCC1 [Example 133, (3aR,6aS)-N-[(1S)-1-(4-Cyclobutanecarbonyl-6-oxo-hexahydro-pyrrolo[3,2-b]pyrrole-1-carbonyl)-3-methyl-butyl]-4-dimethylamino-benzamide]
< 5	CC(C)C[C@H](NC(=O)c1ccc(N(C)C)cc1)C(=O)N1CC[C@@H]2[C@H]1C(=O)CN2C(=O)c1cccc[n+]1[O-] [Example 80]
< 5	CC(=O)NCC(=O)N1CC(=O)[C@@H]2[C@H]1CCN2C(=O)[C@H](CC(C)C)NC(=O)c1ccc(N(C)C)cc1 [Example 199, (3aR,6aS)-N-{(1S)-1-[4-(2-Acetylamino-acetyl)-6-oxo-hexahydro-pyrrolo[3,2-b]pyrrole-1-carbonyl]-3-methyl-butyl}-4-dimethylamino-benzamide]
< 5	CC(C)C[C@H](NC(=O)c1ccc(N(C)C)cc1)C(=O)N1CC[C@@H]2[C@H]1C(=O)CN2C(=O)[C@@H](N)CO [Example 206, (3aR,6aS)-N-{(1S)-1-[((2S)-2-Amino-3-hydroxy-propionyl)-6-oxo-hexahydro-pyrrolo[3,2-b]pyrrole-1-carbonyl]-3-methyl-butyl}-4-dimethylamino-benzamide]
< 5	CNCC(=O)N1CC(=O)[C@@H]2[C@H]1CCN2C(=O)[C@H](CC(C)C)NC(=O)c1ccc(N(C)C)cc1 [Example 200, (3aR,6aS)-4-Dimethylamino-N-{(1S)-3-methyl-1-[4-(2-methylamino-acetyl)-6-oxo-hexahydro-pyrrolo[3,2-b]pyrrole-1-carbonyl]-butyl}-benzamide]
< 5	CCC[C@H](N)C(=O)N1CC(=O)[C@@H]2[C@H]1CCN2C(=O)[C@H](CC(C)C)NC(=O)c1ccc(N(C)C)cc1 [Example 210, (3aR,6aS)-N-{(1S)-1-[4-((2S)-2-Amino-pentanoyl)-6-oxo-hexahydro-pyrrolo[3,2-b]pyrrole-1-carbonyl]-3-methyl-butyl}-4-dimethylamino-benzamide]

More lines, now with the values behind:

Compound	Ki [µM]
O=C(N[C@@H](Cc1ccc(O)cc1)C(=O)N1CC[C@@H]2[C@H]1C(=O)CN2C(=O)c1ccccc1)c1cccc2cccnc12 [Example 297, (3aR,6aS)-Quinoline-8-carboxylic acid [(1S)-2-(4-benzoyl-6-oxo-hexahydro-pyrrolo[3,2-b]pyrrole-1-yl)-1-(4-hydroxy-benzyl)-2-oxo-ethyl]-amide]	< 5
O=C(N[C@@H](Cc1ccc(O)cc1)C(=O)N1CC[C@@H]2[C@H]1C(=O)CN2C(=O)c1ccccc1)c1ccccc1 [Example 333, (3aR,6aS)-N-[(1S)-2-(4-Benzoyl-6-oxo-hexahydro-pyrrolo[3,2-b]pyrrol-1-yl)-1-(4-hydroxy-benzyl)-2-oxo-ethyl]-benzamide]	< 5
COc1cccc(C(=O)N[C@@H](Cc2ccc(O)cc2)C(=O)N2CC[C@@H]3[C@H]2C(=O)CN3C(=O)c2ccccc2)c1 [Example 338, (3aR,6aS)-N-[(1S)-2-(4-Benzoyl-6-oxo-hexahydro-pyrrolo[3,2-b]pyrrol-1-yl)-1-(4-hydroxy-benzyl)-2-oxo-ethyl]-3-methoxy-benzamide]	< 5
CC(C)C[C@H](NC(=O)c1ccc(C(C)(C)C)cc1)C(=O)N1CC[C@@H]2[C@H]1C(=O)CN2C(=O)c1ccccc1Cc1ccccc1 [Example 36, (3aR,6aS)-N-{(1S)-1-[4-(2-Benzyl-benzoyl)-6-oxo-hexahydro-pyrrolo[3,2-b]pyrrole-1-carbonyl]-3-methyl-butyl}-4-tert-butyl-benzamide]	< 5
O=C(N[C@@H](Cc1ccc(O)cc1)C(=O)N1CC[C@@H]2[C@H]1C(=O)CN2C(=O)c1ccccc1)c1cccc(OC(F)(F)F)c1 [Example 339, (3aR,6aS)-N-[(1S)-2-(4-Benzoyl-6-oxo-hexahydro-pyrrolo[3,2-b]pyrrol-1-yl)-1-(4-hydroxy-benzyl)-2-oxo-ethyl]-3-trifluoromethoxy-benzamide]	< 5
CC(C)(C)c1ccc(C(=O)N[C@@H](Cc2cccs2)C(=O)N2CC[C@@H]3[C@H]2C(=O)CN3C(=O)c2cccnc2)cc1 [Example 23, (3aR,6aS)-4-tert-Butyl-N-{(1S)-2-oxo-2-[6-oxo-4-(pyridine-3-carbonyl)-hexahydro-pyrrolo[3,2-b]pyrrole-1-yl]-1-thiophen-2-ylmethyl-ethyl}-benzamide]	< 5
Cc1ccc(C(=O)N2CC(=O)[C@@H]3[C@H]2CCN3C(=O)[C@H](Cc2ccc(O)cc2)NC(=O)c2cccc(Br)c2)cc1 [Example 328, (3aR,6aS)-3-Bromo-N-{(1S)-1-(4-hydroxy-benzyl)-2-[4-(4-methyl-benzoyl)-6-oxo-hexahydro-pyrrolo[3,2-b]pyrrole-1-yl]-2-oxo-ethyl}-benzamide]	< 5
O=C(N[C@@H](Cc1ccc(O)cc1)C(=O)N1CC[C@@H]2[C@H]1C(=O)CN2C(=O)c1cccs1)c1cccc(Br)c1 [Example 324, (3aR,6aS)-3-Bromo-N-{(1S)-1-(4-hydroxy-benzyl)-2-oxo-2-[6-oxo-4-(thiophene-2-carbonyl)-hexahydro-pyrrolo[3,2-b]pyrrol-1-yl]-ethyl}-benzamide]	< 5
CC(C)C[C@H](NC(=O)c1ccc(C(C)(C)C)cc1)C(=O)N1CC[C@@H]2[C@H]1C(=O)CN2C(=O)c1ccc2c(c1)OCCO2 [Example 30, (3aR,6aS)-4-tert-Butyl-N-{(1S)-1-[4-(2,3-dihydro-benzo[1,4]dioxine-6-carbonyl)-6-oxo-hexahydro-pyrrolo[3,2-b]pyrrole-1-carbonyl]-3-methyl-butyl}-benzamide]	< 5
O=C(N[C@@H](Cc1cc(F)cc(F)c1)C(=O)N1CC[C@@H]2[C@H]1C(=O)CN2C(=O)c1ccccc1)c1cccc(Br)c1 [Example 343, (3aR,6aS)-N-[(1S)-2-(4-Benzoyl-6-oxo-hexahydro-pyrrolo[3,2-b]pyrrol-1-yl)-1-(3,5-difluoro-benzyl)-2-oxo-ethyl]-3-bromo-benzamide]	< 5
